Measured values taken from patent US20250084063A1 (Incyte Corporation, priority 2023, published 2025).

How the values were obtained:
Type in all cases: cell-based
MRGPRX2 [1] = molecular target: T1, MRGPRX2 (Homo sapiens, UniProt Q96LB1); test: MRGPRX2 β-Arrestin assay; parameters: host or cells: PathHunter CHO-K1; conditions: PathHunter CHO-K1 MRGPRX2 β-Arrestin cell line; agonist Cortistatin 14 0.25 μM
T1 sequence (Q96LB1 1-330): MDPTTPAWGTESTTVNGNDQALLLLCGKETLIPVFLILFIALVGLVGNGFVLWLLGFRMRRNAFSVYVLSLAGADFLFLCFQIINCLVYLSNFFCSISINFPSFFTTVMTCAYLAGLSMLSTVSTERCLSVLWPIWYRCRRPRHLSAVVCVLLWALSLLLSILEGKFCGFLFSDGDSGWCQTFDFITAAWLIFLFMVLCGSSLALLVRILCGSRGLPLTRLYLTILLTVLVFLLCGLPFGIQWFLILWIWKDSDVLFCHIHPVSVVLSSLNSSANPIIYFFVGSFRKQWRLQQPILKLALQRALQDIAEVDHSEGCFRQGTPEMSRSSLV
In short: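 PathHunter CHO-K1 cells expressing ProLink-tagged MRGPRX2 and enzyme-acceptor-tagged β-arrestin were preincubated with serially diluted compound 1 h at 37 °C, then stimulated with 0.25 μM cortistatin 14 (final) for 90 min. β-arrestin recruitment was read by luminescence; IC50 from 3- or 4-parameter Hill fits normalised to DMSO and reference antagonist controls.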

MRGPRX2 [2] = molecular target: T1, MRGPRX2; test: MRGPRX2 IP1 HTRF assay; parameters: host or cells: CHO-K1; conditions: CHO-K1 cells stably expressing human MRGPRX2; IP1 accumulation, agonist Cortistatin 14 1 μM
MRGPRX2 [3] = molecular target: T1, MRGPRX2; test: MRGPRX2 FLIPR calcium mobilization assay; parameters: host or cells: CHO-K1; conditions: CHO-K1 cells stably expressing human MRGPRX2; Ca2+ release, agonist Cortistatin-14 at EC80
In short: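 CHO-K1 cells stably expressing human MRGPRX2, loaded with Calcium 6 dye, pre-incubated 30 min at room temperature with test compound in HBSS/20 mM HEPES pH 7.4. Then challenged with Cortistatin-14 at EC80; baseline-adjusted peak fluorescence over 110 s fitted to a Hill equation for IC50.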

SMILES | IC50 (MRGPRX2 [1]) | IC50 (MRGPRX2 [2]) | IC50 (MRGPRX2 [3])
NS(=O)(=O)N1CC(CNc2cc(C(F)(F)F)nc3ccc(Cl)cc23)(c2ncccc2F)C1 [Example 43, 3-(((6-Chloro-2-(trifluoromethyl)quinolin-4-yl)amino)methyl)-3-(3-fluoropyridin-2-yl)azetidine-1-sulfonamide] | 0.1 to 100 nM | 0.1 to 100 nM | 0.1 to 100 nM
CNC(=O)N1CC(CNc2cc(C(F)(F)F)nc3ccc(Cl)cc23)(n2cc(F)cn2)C1 [Example 44, 3-(((6-Chloro-2-(trifluoromethyl)quinolin-4-yl)amino)methyl)-3-(4-fluoro-1H-pyrazol-1-yl)-N-methylazetidine-1-carboxamide] | 0.1 to 100 nM | 0.1 to 100 nM | 0.1 to 100 nM
O=C1CCC(CNc2cc(C(F)(F)F)nc3ccc(Cl)cc23)(c2ccccc2)N1 (stereo not drawn) [Example 45, 5-(((6-Chloro-2-(trifluoromethyl)quinolin-4-yl)amino)methyl)-5-phenylpyrrolidin-2-one] | 0.1 to 100 nM | 0.1 to 100 nM | 0.1 to 100 nM
NS(=O)(=O)N1CC(CNc2cc(C(F)(F)F)nc3ccc(Cl)cc23)(c2ccc(F)cn2)C1 [Example 46, 3-(((6-Chloro-2-(trifluoromethyl)quinolin-4-yl)amino)methyl)-3-(5-fluoropyridin-2-yl)azetidine-1-sulfonamide] | 0.1 to 100 nM | 0.1 to 100 nM | 0.1 to 100 nM
NC(=O)N1CC(CNc2cc(C(F)(F)F)nc3ccc(Cl)cc23)(c2ccc(F)cn2)C1 [Example 47, 3-(((6-Chloro-2-(trifluoromethyl)quinolin-4-yl)amino)methyl)-3-(5-fluoropyridin-2-yl)azetidine-1-carboxamide] | 0.1 to 100 nM | 0.1 to 100 nM | 0.1 to 100 nM
CNC(=O)N1CCC(CNc2cc(C(F)(F)F)nc3ccc(Cl)cc23)(c2ccc(F)cn2)C1 (stereo not drawn) [Example 49, 3-(((6-Chloro-2-(trifluoromethyl)quinolin-4-yl)amino)methyl)-3-(5-fluoropyridin-2-yl)-N-methylpyrrolidine-1-carboxamide] | 0.1 to 100 nM | 0.1 to 100 nM | 0.1 to 100 nM
CNC(=O)N1CC(CNc2cc(C(F)(F)F)nc3ccc(Cl)cc23)(n2cccn2)C1 [Example 52, 3-(((6-Chloro-2-(trifluoromethyl)quinolin-4-yl)amino)methyl)-N-methyl-3-(1H-pyrazol-1-yl)azetidine-1-carboxamide] | 0.1 to 100 nM | 0.1 to 100 nM | 0.1 to 100 nM
Fc1ccc(C2(CNc3cc(C(F)(F)F)nc4ccc(Cl)cc34)COCCO2)cc1 (stereo not drawn) [Example 53, 6-Chloro-N-((2-(4-fluorophenyl)-1,4-dioxan-2-yl)methyl)-2-(trifluoromethyl)quinolin-4-amine] | 0.1 to 100 nM | 0.1 to 100 nM | 0.1 to 100 nM
NC(=O)N1CC(CNc2cc(C(F)(F)F)nc3cc(F)ccc23)(c2ccc(F)cn2)C1 [Example 59, 3-(((7-Fluoro-2-(trifluoromethyl)quinolin-4-yl)amino)methyl)-3-(5-fluoropyridin-2-yl)azetidine-1-carboxamide] | 100 to 1000 nM | 100 to 1000 nM | 0.1 to 100 nM
Nc1ccc(N2CCC(CNc3cc(C(F)(F)F)nc4ccc(Cl)cc34)(c3ccccc3)CC2)nn1 [Example 78, N-((1-(6-Aminopyridazin-3-yl)-4-phenylpiperidin-4-yl)methyl)-6-chloro-2-(trifluoromethyl)quinolin-4-amine] | 0.1 to 100 nM | 0.1 to 100 nM | 0.1 to 100 nM
NS(=O)(=O)N1CC(CNc2cc(C(F)(F)F)nc3ccc(Cl)cc23)(c2ccc3ccccc3n2)C1 [Example 80, 3-(((6-Chloro-2-(trifluoromethyl)quinolin-4-yl)amino)methyl)-3-(quinolin-2-yl)azetidine-1-sulfonamide] | 100 to 1000 nM | 100 to 1000 nM | 0.1 to 100 nM
Cc1csc(C2(CNc3cc(C(F)(F)F)nc4ccc(Cl)cc34)CN(S(N)(=O)=O)C2)n1 [Example 81, 3-(((6-Chloro-2-(trifluoromethyl)quinolin-4-yl)amino)methyl)-3-(4-methylthiazol-2-yl)azetidine-1-sulfonamide] | 0.1 to 100 nM | 100 to 1000 nM | 0.1 to 100 nM
Cn1ncc2cc(C3(CNc4cc(C(F)(F)F)nc5ccc(Cl)cc45)CN(S(N)(=O)=O)C3)ccc21 [Example 82, 3-(((6-Chloro-2-(trifluoromethyl)quinolin-4-yl)amino)methyl)-3-(1-methyl-1H-indazol-5-yl)azetidine-1-sulfonamide] | 0.1 to 100 nM | 100 to 1000 nM | 0.1 to 100 nM
CNC(=O)N1CC(CNc2cc(C(F)(F)F)nc3ccc(Cl)cc23)(c2ccc3cnn(C)c3c2)C1 [Example 83] | 100 to 1000 nM | 100 to 1000 nM | 0.1 to 100 nM
Cn1ncc2ccc(C3(CNc4cc(C(F)(F)F)nc5ccc(Cl)cc45)CN(S(N)(=O)=O)C3)cc21 [Example 84, 3-(((6-Chloro-2-(trifluoromethyl)quinolin-4-yl)amino)methyl)-3-(1-methyl-1H-indazol-6-yl)azetidine-1-sulfonamide] | 0.1 to 100 nM | 100 to 1000 nM | 0.1 to 100 nM
CNC(=O)N1CC(CNc2cc(C(F)(F)F)nc3ccc(Cl)cc23)(n2cc(Cl)cn2)C1 [Example 98, 3-(4-Chloro-1H-pyrazol-1-yl)-3-(((6-chloro-2-(trifluoromethyl)quinolin-4-yl)amino)methyl)-N-methylazetidine-1-carboxamide] | 0.1 to 100 nM | 0.1 to 100 nM | 0.1 to 100 nM
CNC(=O)N1CC(CNc2cc(C(F)(F)F)nc3ccc(Cl)cc23)(n2cc(Br)cn2)C1 [Example 99, 3-(4-Bromo-1H-pyrazol-1-yl)-3-(((6-chloro-2-(trifluoromethyl)quinolin-4-yl)amino)methyl)-N-methylazetidine-1-carboxamide] | 0.1 to 100 nM | 0.1 to 100 nM | 0.1 to 100 nM
O=C(NC1CC(O)C1)N1CC(CNc2cc(C(F)(F)F)nc3ccc(Cl)cc23)(n2cc(F)cn2)C1 (stereo not drawn) [Example 106, 3-(((6-Chloro-2-(trifluoromethyl)quinolin-4-yl)amino)methyl)-3-(4-fluoro-1H-pyrazol-1-yl)-N-(3-hydroxycyclobutyl)azetidine-1-carboxamide] | 0.1 to 100 nM | 0.1 to 100 nM | 0.1 to 100 nM
O=C(NC1CCC1)N1CC(CNc2cc(C(F)(F)F)nc3ccc(Cl)cc23)(n2cc(F)cn2)C1 [Example 107, 3-(((6-Chloro-2-(trifluoromethyl)quinolin-4-yl)amino)methyl)-N-cyclobutyl-3-(4-fluoro-1H-pyrazol-1-yl)azetidine-1-carboxamide] | 0.1 to 100 nM | 0.1 to 100 nM | 0.1 to 100 nM
O=C1NC(=O)C2(CC(CNc3cc(C(F)(F)F)nc4ccc(Cl)cc34)(c3ccccc3)C2)N1 (stereo not drawn) [Example 108, 2-(((6-Chloro-2-(trifluoromethyl)quinolin-4-yl)amino)methyl)-2-phenyl-5,7-diazaspiro[3.4]octane-6,8-dione] | 0.1 to 100 nM | 0.1 to 100 nM | 0.1 to 100 nM
[2H]C([2H])([2H])NC(=O)N1CC(CNc2cc(C(F)(F)F)nc3ccc(Cl)cc23)(n2ccc(F)n2)C1 [Example 109, 3-(((6-Chloro-2-(trifluoromethyl)quinolin-4-yl)amino)methyl)-3-(3-fluoro-1H-pyrazol-1-yl)-N-(methyl-d3)azetidine-1-carboxamide] | 0.1 to 100 nM | 0.1 to 100 nM | 0.1 to 100 nM
